Source: patent publication US10450300B2, “Wnt signaling pathway inhibitors and therapeutic applications thereof” (Suzhou Yunxuan Yiyao Keji Youxian Gongsi, priority 2015, dated 2019)

System: Wnt pathway
Experiment: Wnt pathway Super-top flash (STF) reporter gene assay (primary assay)
Assay type: cell-based
Settings: HEK293 STF cells co-cultured 1:1 with L Wnt3A cells; 48 h incubation; inhibition of luminescence signaling
Experimental: The primary assay is based on Wnt pathway Super-top flash (STF) reporter gene assay:
HEK293 STF stable clones (HEK293 cells stably transfected with “Super-Top Flash” TCF-luciferase reporter plasmid) were kept in complete culture medium (DMEM with 4 mM L-Gln, 1.5 g/L sodium bicarbonate and 4.5 g/L glucose containing 6 μg/mL Blasticidin and 10% FBS). L Wnt3A cells (CRL-2647, ATCC) were kept in DMEM (Gibico) containing 10% FBS (Hyclone). HEK293 STF and L Wnt3A cells were harvested when 90% confluence and cell suspension was mixed with a fixed ratio of 1:1 (HEK293 STF: L Wnt3A). 100 μL/well of mixed cells suspension was added to the 96-well-plate with final cell concentration of 12,000 cells/well and then cultured for an additional 24 hours before adding compounds.
Compounds were diluted in DMSO in sequence and then diluted with DMEM medium. 20 μL medium containing compound was added to the cells according to the pre-setting dose. Cell plates were incubated at 37° C. for an additional 48 hours.
50 μL luciferase solution (Bright-Glo, Promega) was added to each well […] the 48 h incubation. The plates were incubated at room temperature for 5 min under gentle shaking. Luminescence signaling was measured with a plate reader (PHERAstar FS, BMG). The IC50 (potency) of compounds was calculated based on the inhibition of luminescence signaling.

Structure (SMILES) | IC50 [nM]
Cc1cc(-c2ccc(CNc3ncnc(-c4ccc5ccccc5c4)c3F)cc2)ccn1 [Compound A-1, 5-fluoro-N-(4-(2-methylpyridin-4-yl)benzyl)-6-(naphthalen-2-yl)pyrimidin-4-amine] | 1.4
Cc1cc(-c2ccc(CNc3ncnc(-c4cnc5ccccc5c4)c3F)cc2)ccn1 [Compound A-2] | 2.9
Cc1cc(-c2ccc(CNc3ncnc(-c4ccc5cccnc5c4)c3F)cc2)ccn1 [Compound A-3] | 36
Cc1cc(-c2ccc(CNc3ncnc(-c4ccc5ncccc5c4)c3F)cc2)ccn1 [Compound A-4] | 0.3
Cc1cc(-c2ccc(CNc3ncnc(-c4ccc5nc(C)ccc5c4)c3F)cc2)ccn1 [Compound A-5] | 2.1
Cc1cc(-c2ccc(CNc3ncnc(-c4ccc5cnccc5c4)c3F)cc2)ccn1 [Compound A-6] | 4.7
Cc1cc(-c2ccc(CNc3ncnc(-c4ccc5ccncc5c4)c3F)cc2)ccn1 [Compound A-7] | 7.4
Cc1cc(-c2ccc(CNc3ncnc(-c4ccc5nccnc5c4)c3F)cc2)ccn1 [Compound A-8] | 1.5
Cc1cc(-c2ccc(CNc3ncnc(-c4ccc5ncncc5c4)c3F)cc2)ccn1 [Compound A-9] | 2.8
Cc1cc(-c2ccc(CNc3ncnc(-c4ccc5[nH]cnc5c4)c3F)cc2)ccn1 [Compound A-10] | 285
Cc1cc(-c2ccc(CNc3ncnc(-c4ccc5nccn5c4)c3F)cc2)ccn1 [Compound A-11] | 1.6
Cc1cc(-c2ccc(CNc3ncnc(-c4ccc5ncsc5c4)c3F)cc2)ccn1 [Compound A-12] | 0.3
Cc1cc(-c2ccc(CNc3ncnc(-c4ccc5[nH]ncc5c4)c3F)cc2)ccn1 [Compound A-13] | 99
Cc1cc(-c2ccc(CNc3ncnc(-c4ccc5nn(C)cc5c4)c3F)cc2)ccn1 [Compound A-14] | 5.9
Cc1cc(-c2ccc(CNc3ncnc(-c4ccc5c(cnn5C)c4)c3F)cc2)ccn1 [Compound A-15] | 19
Cc1cc(-c2ccc(CNc3ncnc(-c4ccc5c(c4)OCCO5)c3F)cc2)ccn1 [Compound A-16] | 27
Cc1cc(-c2ccc(CNc3ncnc(-c4ccccc4)c3F)cc2)ccn1 [Compound A-17] | > 1000
Cc1cc(-c2ccc(CNc3ncnc(-c4ccccc4Cl)c3F)cc2)ccn1 [Compound A-18] | 480
Cc1cc(-c2ccc(CNc3ncnc(-c4cccc(Cl)c4)c3F)cc2)ccn1 [Compound A-19] | 14
Cc1cc(-c2ccc(CNc3ncnc(-c4ccc(Cl)cc4)c3F)cc2)ccn1 [Compound A-20] | 211
Cc1cc(-c2ccc(CNc3ncnc(-c4ccc(Cl)c(Cl)c4)c3F)cc2)ccn1 [Compound A-21] | 14
Cc1cc(-c2ccc(CNc3ncnc(N4CCc5ccccc5C4)c3F)cc2)ccn1 [Compound A-22] | 14
Cc1cc(-c2ccc(CNc3ncnc(N4CCc5ccc(F)cc5C4)c3F)cc2)ccn1 [Compound A-23] | 15
Cc1cc(-c2ccc(CNc3ncnc(N4CCc5c(F)cccc5C4)c3F)cc2)ccn1 [Compound A-24] | 37
Cc1cc(-c2ccc(CNc3ncnc(N4CCc5c(Br)cccc5C4)c3F)cc2)ccn1 [Compound A-25] | > 1000
Cc1cc(-c2ccc(CNc3ncnc(N4CCc5ncccc5C4)c3F)cc2)ccn1 [Compound A-26] | 1.5
Cc1cc(-c2ccc(CN(C)c3ncnc(-c4ccc5ccccc5c4)c3F)cc2)ccn1 [Compound A-27, 5-fluoro-N-methyl-N-(4-(2-methylpyridin-4-yl)benzyl)-6-(naphthalen-2-yl)pyrimidin-4-amine] | 937
Cc1cc(-c2ccc(C(C)Nc3ncnc(-c4ccc5ccccc5c4)c3F)cc2)ccn1 (stereo not shown) [Compound A-28] | 17
Cc1cc(-c2ccc(CNc3ncnc(-c4ccc5ccccc5c4)c3F)s2)ccn1 [Compound A-29] | 577

Further lines, results first:

IC50 [nM] | Structure (SMILES)
23 | Cc1cc(-c2ccc(CNc3ncnc(-c4ccc5ccccc5c4)c3F)cn2)ccn1 [Compound A-30]
1 | Cc1cc(-c2ccc(CNc3ncnc(-c4ccc5ncccc5c4)c3F)cn2)ccn1 [Compound A-31]
2 | Cc1cc(-c2ccc(CNc3ncnc(N4CCc5ncccc5C4)c3F)cn2)ccn1 [Compound A-32]
1.4 | Cc1cc(-c2ncc(CNc3ncnc(-c4ccc5ccccc5c4)c3F)cc2C)ccn1 [Compound A-33]
3 | Cc1cc(-c2ncc(CNc3ncnc(-c4ccc5ncccc5c4)c3F)cc2C)ccn1 [Compound A-34]
4 | Cc1cc(-c2ncc(CNc3ncnc(-c4ccc5ccccc5c4)c3F)cc2F)ccn1 [Compound A-35]
0.5 | Cc1cc(-c2ncc(CNc3ncnc(-c4ccc5ncccc5c4)c3F)cc2F)ccn1 [Compound A-36]
2.4 | Cc1cc(-c2ccc(CNc3ncnc(-c4ccc5ccccc5c4)c3F)nc2)ccn1 [Compound A-37]
5 | Fc1c(NCc2ccc(-c3ccncc3)cc2)ncnc1-c1ccc2ccccc2c1 [Compound A-38]
129 | Cn1nccc1-c1ccc(CNc2ncnc(-c3ccc4ccccc4c3)c2F)cc1 [Compound A-39]
> 1000 | Fc1c(NCc2ccc(-n3ccnc3)cc2)ncnc1-c1ccc2ccccc2c1 [Compound A-40]
55 | Fc1c(NCc2ccc3cnccc3c2)ncnc1-c1ccc2ncccc2c1 [Compound A-41]
0.7 | N#Cc1ccc2cc(CNc3ncnc(-c4ccc5ncccc5c4)c3F)ccc2c1 [Compound A-42, 6-((5-fluoro-6-(quinolin-6-yl)pyrimidin-4-ylamino)methyl)-2-naphthonitrile]
75 | NC(=O)c1ccc2cc(CNc3ncnc(-c4ccc5ncccc5c4)c3F)ccc2c1 [Compound A-43, 6-((5-fluoro-6-(quinolin-6-yl)pyrimidin-4-ylamino)methyl)-2-naphthamide]
1 | N#Cc1ccc2cc(CNc3ncnc(N4CCc5ncccc5C4)c3F)ccc2c1 [Compound A-44]
0.4 | Cc1cc(-c2ncc(CNc3ncnc(N4CCc5ncccc5C4)c3F)cc2F)ccn1 [Compound A-45]
4.9 | Cc1cc(-c2ncc(CNc3ncnc(N4CCc5ncccc5C4)c3F)cc2C)ccn1 [Compound A-46]
0.94 | Cc1cc(-c2ccc(CNc3ncnc(N4CCc5ncsc5C4)c3F)cc2)ccn1 [Compound A-47]
0.39 | Cc1cc(-c2ncc(CNc3ncnc(-c4ccc5ncsc5c4)c3F)cc2F)ccn1 [Compound A-49]

IC50 [nM] | Structure (SMILES)
1 | Cc1cc(-c2ccc(CNc3ncnc(-c4ccc5ncsc5c4)c3F)cn2)ccn1 [Compound A-50]
1 | Cc1cc(-c2ncc(CNc3ncnc(-c4ccc5ncsc5c4)c3F)cc2C)ccn1 [Compound A-51]
17 | Cc1cc(-c2ccc(CNc3ncnc(N4Cc5ccccc5C4)c3F)cc2)ccn1 [Compound A-52]
89 | Cc1cc(-c2ccc(CNc3ncnc(N4CCc5c(C#N)cccc5C4)c3F)cc2)ccn1 [Compound A-53]
0.67 | Cc1cc(-c2ncc(CNc3ncnc(N4CCc5ncsc5C4)c3F)cc2F)ccn1 [Compound A-54]
3000 | Cc1cc(-c2ccc(CNc3ncnc(-c4ccc5nncn5c4)c3F)cc2)ccn1 [Compound A-55]
1 | Cc1cc(-c2ncc(CNc3ncnc(N4CCc5ncccc5C4)c3F)cc2C#N)ccn1 [Compound A-56]
0.39 | Cc1cc(-c2ncc(CNc3ncnc(-c4ccc5ncccc5c4)c3F)cc2C#N)ccn1 [Compound A-57]
34 | Cc1cc(-c2ncc(CNc3ncnc(N4CCn5ncnc5C4)c3F)cc2F)ccn1 [Compound A-58]
230 | Cc1cc(-c2ccc(CNc3ncnc(N4CCn5c(nnc5C(F)(F)F)C4)c3F)cc2)ccn1 [Compound A-59]
0.81 | Cc1cc(-c2ncc(CNc3ncnc(-c4ccc5ncccc5c4)c3F)cn2)ccn1 [Compound A-60]
1.3 | Cc1cc(-c2ncc(CNc3ncnc(N4CCc5ncccc5C4)c3F)cn2)ccn1 [Compound A-61, 6-(7,8-dihydro-1,6-naphthyridin-6(5H)-yl)-5-fluoro-N-((2-(2-methylpyridin-4-yl)pyrimidin-5-yl)methyl)pyrimidin-4-amine]
6.2 | Cc1cc(-c2ncc(CNc3ncnc(N4CCc5ncncc5C4)c3F)cc2F)ccn1 [Compound A-62]
2 | Cc1cc(-c2cnc(CNc3ncnc(-c4ccc5ncccc5c4)c3F)cn2)ccn1 [Compound A-63]
16 | Cc1cc(-c2ccc(CNc3ncnc(-c4ccc5ncccc5c4)c3F)cc2)cc[n+]1[O-] [Compound A-64, 4-(4-((5-fluoro-6-(quinolin-6-yl)pyrimidin-4-ylamino)methyl)phenyl)-2-methylpyridine 1-oxide]
0.44 | COc1cc(CNc2ncnc(-c3ccc4ncccc4c3)c2F)cnc1-c1ccnc(C)c1 [Compound A-65]
10 | Fc1c(NCc2ccc(-c3ccnnc3)cc2)ncnc1-c1ccc2ncccc2c1 [Compound A-67]
16 | O=S1(=O)CCN(c2ccc(CNc3ncnc(-c4ccc5ncccc5c4)c3F)cn2)CC1 [Compound A-68]
73 | Cc1cc(-c2ncc(CNc3ncnc(C#Cc4cccnc4)c3F)cc2F)ccn1 [Compound A-69, 5-fluoro-N-((3-fluoro-2′-methyl-2,4′-bipyridin-5-yl)methyl)-6-(pyridin-3-ylethynyl)pyrimidin-4-amine]
